Results from patent publication US20110105326A1, “Method for Enhancing the Rainfastness of Glyphosate” (BASF SE, priority 2008, published 2011).

Assays:
Assay type in all cases: in vivo
[1] = tested on: Echinochloa colonum (ECHCO); assay: herbicidal action with/without simulated rainfall after treatment, Echinochloa colonum; details: Example 7, carfentrazone 30 g/ha, glyphosate 1080 g/ha, 0.5% v/v Dash in Carfentrazone and mixture
Experimental: (§1) The enhancement of the rainfastness of glyphosate was determined via the herbicidal activity of the mixture comprising glyphosate and the respective rainfastness enhancing herbicidal component B as well as of the single herbicidal components in relation to simulated rainfall at different time intervals.
(§2) The evaluation of the damage caused by the method and the compositions the according to the present invention and the single herbicidal components was carried out using a scale from 0 to 100%, compared to the untreated control plots. Here, 0 means no damage and 100 means complete destruction of the plants of a respective weed or crop species.
(§3) The application was performed with a fixed spayer system with air pressurization and with a tank spray volume of two liters. The speed of the spray device over the plants was adjusted for a spray volume of 200 I/ha. The spray device was a spray barr with four nozzles from the type Teejet XR 11002VS with a space of 50 cm between each nozzle.
(§4) The application was performed at a weed stage of 6 to 8 leaves. After the application of the formulated herbicides the leaves were washed through rain of 20 mm using a fixed rain simulator system at following time interval: 15 min, 30 min, 1, 2, 3, 4 and 6 hours after treatment.

[2] = tested on: Bidens pilosa (BIDPI); assay: herbicidal action with/without simulated rainfall after treatment, Bidens pilosa; details: Example 6, carfentrazone 30 g/ha, glyphosate 1080 g/ha, 0.5% v/v Dash in Carfentrazone and mixture
Experimental: as §1, §2, §3, §4

[3] = tested on: Brachiaria decumbens (BRADE); assay: herbicidal action with/without simulated rainfall after treatment, Brachiaria decumbens; details: Example 8, carfentrazone 30 g/ha, glyphosate 1080 g/ha, 0.5% v/v Dash in Carfentrazone and mixture
Experimental: as §1, §2, §3, §4

[4] = simulated rainfall 15 min after treatment, 1 DAA
[5] = simulated rainfall 15 min after treatment, 2 DAA
[6] = simulated rainfall 15 min after treatment, 3 DAA
[7] = simulated rainfall 15 min after treatment, 7 DAA
[8] = simulated rainfall 2 hours after treatment, 1 DAA
[9] = simulated rainfall 2 hours after treatment, 2 DAA
[10] = simulated rainfall 2 hours after treatment, 3 DAA
[11] = simulated rainfall 2 hours after treatment, 7 DAA
[12] = without simulated rainfall, 1 DAA
[13] = without simulated rainfall, 2 DAA
[14] = without simulated rainfall, 3 DAA
[15] = without simulated rainfall, 7 DAA
[16] = simulated rainfall 30 min after treatment, 1 DAA
[17] = simulated rainfall 30 min after treatment, 2 DAA
[18] = simulated rainfall 30 min after treatment, 3 DAA
[19] = simulated rainfall 6 hours after treatment, 1 DAA
[20] = simulated rainfall 6 hours after treatment, 2 DAA
[21] = simulated rainfall 6 hours after treatment, 3 DAA

## Cc1nn(-c2cc(CC(Cl)C(=O)O)c(Cl)cc2F)c(=O)n1C(F)F (centres unmarked) [Carfentrazone, carfentrazone]
[1]; [4]
  herbicidal action against ECHCO: 9%
[1]; [5]
  herbicidal action against ECHCO: 33.33%
[1]; [6]
  herbicidal action against ECHCO: 36%
[1]; [7]
  herbicidal action against ECHCO: 56%
[1]; [8]
  herbicidal action against ECHCO: 14%
[1]; [9]
  herbicidal action against ECHCO: 32.22%
[1]; [10]
  herbicidal action against ECHCO: 37.66%
[1]; [11]
  herbicidal action against ECHCO: 50.33%
[1]; [12]
  herbicidal action against ECHCO: 14.66%
[1]; [13]
  herbicidal action against ECHCO: 54.66%
[1]; [14]
  herbicidal action against ECHCO: 76.66%
[1]; [15]
  herbicidal action against ECHCO: 76%
[2]; [4]
  herbicidal action against BIDPI: 51%
[2]; [5]
  herbicidal action against BIDPI: 54.66%
[2]; [6]
  herbicidal action against BIDPI: 53.33%
[2]; [16]
  herbicidal action against BIDPI: 68.66%
[2]; [17]
  herbicidal action against BIDPI: 87.66%
[2]; [18]
  herbicidal action against BIDPI: 94.66%
[2]; [8]
  herbicidal action against BIDPI: 69.33%
[2]; [9]
  herbicidal action against BIDPI: 89%
[2]; [10]
  herbicidal action against BIDPI: 92.33%
[2]; [19]
  herbicidal action against BIDPI: 56%
[2]; [20]
  herbicidal action against BIDPI: 86.66%
[2]; [21]
  herbicidal action against BIDPI: 92.33%
[2]; [12]
  herbicidal action against BIDPI: 69.66%
[2]; [13]
  herbicidal action against BIDPI: 94.33%
[2]; [14]
  herbicidal action against BIDPI: 99%
[3]; [4]
  herbicidal action against BRADE: 4%
[3]; [5]
  herbicidal action against BRADE: 10.33%
[3]; [6]
  herbicidal action against BRADE: 11.66%
[3]; [7]
  herbicidal action against BRADE: 17.33%
[3]; [16]
  herbicidal action against BRADE: 10.66%
[3]; [17]
  herbicidal action against BRADE: 19.66%
[3]; [18]
  herbicidal action against BRADE: 11.66%
[3]; simulated rainfall 30 min after treatment, 7 DAA
  herbicidal action against BRADE: 18.66%
[3]; [8]
  herbicidal action against BRADE: 15%
[3]; [9]
  herbicidal action against BRADE: 14.33%
[3]; [10]
  herbicidal action against BRADE: 13%
[3]; [11]
  herbicidal action against BRADE: 16.66%
[3]; [19]
  herbicidal action against BRADE: 25%
[3]; [20]
  herbicidal action against BRADE: 29%
[3]; [21]
  herbicidal action against BRADE: 27.66%
[3]; simulated rainfall 6 hours after treatment, 7 DAA
  herbicidal action against BRADE: 26%
[3]; [12]
  herbicidal action against BRADE: 3.66%
[3]; [13]
  herbicidal action against BRADE: 18.33%
[3]; [14]
  herbicidal action against BRADE: 24.33%
[3]; [15]
  herbicidal action against BRADE: 40.33%
